Reference: PMC7031696 (Cell chemical biology, 2019)
Where two headings read alike, the source gives them in different places.

Tests used:
[1] = test system: Plasmodium falciparum 3D7-A10 parasites; experiment: Stage specificity assay (8-h exposure of synchronized stages, IC50^8h); assay type: cell-based; details: for IC50: Plasmodium falciparum
[2] = test system: 3D7-MR4 trophozoite parasite-infected RBCs; experiment: Metabolomic profiling (hydrophilic metabolite changes, UHPLC-MS); assay type: cell-based, Plasmodium falciparum
[3] = test system: asynchronous 3D7-A10 parasite cultures; experiment: Standard 72-h exposure asexual blood stage susceptibility assay (IC50^72h); assay type: cell-based, Plasmodium falciparum; details: Plasmodium falciparum, 3D7, 72 h, read-out: Overall (72hr assay) Mean IC50 (IC50^72h)

OC(c1cc(C(F)(F)F)nc2c(C(F)(F)F)cccc12)C1CCCCN1 (stereo not drawn) [Mefloquine, reference compound]
Ratio lowest IC50 8hr/IC50 72hr ([1]; 3D7-A10): 3.0
IC50 ([1]; 3D7, read-out: Early rings Mean IC50 (IC50^8h), 8-h exposure 0–8 hr, 3D7-A10, survival at 60 h): 0.258 µM
IC50 ([1]; 3D7, read-out: Early trophozoites Mean IC50 (IC50^8h), 8-h exposure 16–24 hr, 3D7-A10, survival at 60 h): 0.0288 µM
IC50 ([1]; 3D7, read-out: IC50^8h values, text summary of Table S1): < 0.3 µM
IC50 ([1]; 3D7, read-out: Late rings Mean IC50 (IC50^8h), 8-h exposure 8–16 hr, 3D7-A10, survival at 60 h): 0.147 µM
IC50 ([1]; 3D7, read-out: Late trophozoites Mean IC50 (IC50^8h), 8-h exposure 24–32 hr, 3D7-A10, survival at 60 h): 0.0295 µM
IC50 ([1]; 3D7, read-out: Schizonts Mean IC50 (IC50^8h), 8-h exposure 32–40 hr, 3D7-A10, survival at 60 h): 0.138 µM
Stage of peak activity (Figure 6) ([1]; period when the parasite was most susceptible (lowest IC50^8h)): only in trophozoites
Peak Activity (Table S1) ([1]; stage(s) with the lowest IC50^8h): Trophs
changes within the set of metabolites detected (low fold change group) ([2]; 10 × IC50^72h, 2.5 hr, trophozoites): did not induce major changes
Log2(fold changes) 3-phosphoglycerate ([2]; metabolite 3-phosphoglycerate, log2 fold change): 0.2359
Log2(fold changes) 4-Pyridoxic acid ([2]; metabolite 4-Pyridoxic acid, log2 fold change): 0.0740
Log2(fold changes) 4-aminobutyrate ([2]; metabolite 4-aminobutyrate, log2 fold change): -0.0258
Log2(fold changes) 4-phosphopantetheine ([2]; metabolite 4-phosphopantetheine, log2 fold change): 0.0000
Log2(fold changes) 4-phosphopantothenate ([2]; metabolite 4-phosphopantothenate, log2 fold change): 0.0024
Log2(fold changes) 5-aminopentanoic acid ([2]; metabolite 5-aminopentanoic acid, log2 fold change): 0.0000
Log2(fold changes) 5-methyl-THF ([2]; metabolite 5-methyl-THF, log2 fold change): 0.0000
Log2(fold changes) 5-phosphoribosyl-1-pyrophosphate ([2]; metabolite 5-phosphoribosyl-1-pyrophosphate, log2 fold change): 0.0000
Log2(fold changes) 6-phospho-D-gluconate ([2]; metabolite 6-phospho-D-gluconate, log2 fold change): -0.0079
Log2(fold change) HVDD ([2]; metabolite HVDD): 0.0000
Log2(fold change) Hydroxyisocaproic acid ([2]; metabolite Hydroxyisocaproic acid): 0.0000
Log2(fold change) IDP ([2]; metabolite IDP): 0.0640
Log2(fold change) IMP ([2]; metabolite IMP): -0.0534
Log2(fold change) Inositol ([2]; metabolite Inositol): 0.0000
Log2(fold change) Isopentyl-PP ([2]; metabolite Isopentyl-PP): 0.0000
Log2(fold change) L-arginino-succinate ([2]; metabolite L-arginino-succinate): -0.3693
Log2(fold change) LD ([2]; metabolite LD): 0.0808
Log2(fold change) Myristoyl/tetradecanoyl-CoA ([2]; metabolite Myristoyl/tetradecanoyl-CoA): 0.0941
Log2(fold change) N-Acetyl-L-alanine ([2]; metabolite N-Acetyl-L-alanine): -0.2190
Log2(fold change) N-acetyl-L-ornithine ([2]; metabolite N-acetyl-L-ornithine): -0.0436
Log2(fold change) N-acetyl-glucosamine-1/6-phosphate ([2]; metabolite N-acetyl-glucosamine-1/6-phosphate): 0.0000
Log2(fold change) N-acetyl-glutamate ([2]; metabolite N-acetyl-glutamate): 0.0134
Log2(fold change) N-acetyl-glutamine ([2]; metabolite N-acetyl-glutamine): 0.0000
Log2(fold change) N-carbamoyl-L-aspartate ([2]; metabolite N-carbamoyl-L-aspartate): 0.0293
Log2(fold change) NAD+ ([2]; metabolite NAD+): -0.0636
Log2(fold change) NADH ([2]; metabolite NADH): 0.0000
Log2(fold change) NADP+ ([2]; metabolite NADP+): -0.0054
Log2(fold change) NADPH ([2]; metabolite NADPH): 0.3297
Log2(fold change) O-acetyl-L-serine ([2]; metabolite O-acetyl-L-serine): 0.0000
Log2(fold change) Octoluse 8/1P ([2]; metabolite Octoluse 8/1P): -0.0524
Log2(fold change) Octoluse Bisphosphate ([2]; metabolite Octoluse Bisphosphate): -0.1015
Log2(fold change) PD ([2]; metabolite PD): -0.1757
Log2(fold change) PE ([2]; metabolite PE): -0.0476
Log2(fold change) PEE ([2]; metabolite PEE): 0.0186
Log2(fold change) PEEK ([2]; metabolite PEEK): 0.1844
Log2(fold change) PVNF ([2]; metabolite PVNF): 0.0025
Log2(fold change) Pyroglutamic acid ([2]; metabolite Pyroglutamic acid): -0.3976
Log2(fold change) Pyrophosphate ([2]; metabolite Pyrophosphate): 0.0000
Log2(fold change) Ribose-5-phosphate ([2]; metabolite Ribose-5-phosphate): 0.0147
Log2(fold change) S-adenosyl-L-homocysteine ([2]; metabolite S-adenosyl-L-homocysteine): 0.1505
Log2(fold change) S-adenosyl-L-methioninamine ([2]; metabolite S-adenosyl-L-methioninamine): 0.0000
Log2(fold change) S-adenosyl-L-methionine ([2]; metabolite S-adenosyl-L-methionine): 0.0000
Log2(fold change) S-methyl-5'-thioadenosine ([2]; metabolite S-methyl-5'-thioadenosine): 0.0813
Log2(fold change) SD ([2]; metabolite SD): -0.0876
Log2(fold change) SDL ([2]; metabolite SDL): -0.0202
Log2(fold change) SID ([2]; metabolite SID): 0.0863
Log2(fold change) Sedoheptulose bisphosphate ([2]; metabolite Sedoheptulose bisphosphate): 0.1126
Log2(fold change) Thiamine pyrophosphate ([2]; metabolite Thiamine pyrophosphate): -0.0341
Log2(fold changes) UDP-D-glucose ([2]; metabolite UDP-D-glucose, log2 fold change): 0.0242
Log2(fold changes) UDP-D-glucuronate ([2]; metabolite UDP-D-glucuronate, log2 fold change): 0.0727
Log2(fold changes) UDP-N-acetyl-glucosamine ([2]; metabolite UDP-N-acetyl-glucosamine, log2 fold change): -0.0280
Log2(fold changes) UDP ([2]; metabolite UDP, log2 fold change): -0.6698
Log2(fold changes) UMP ([2]; metabolite UMP, log2 fold change): -0.1565
Log2(fold changes) UTP ([2]; metabolite UTP, log2 fold change): 0.0862
Log2(fold change) hydroxyphenylpyruvate ([2]; metabolite hydroxyphenylpyruvate): 0.0000
Log2(fold change) hydroxyproline/Aminolevulinate ([2]; metabolite hydroxyproline/Aminolevulinate): 0.0725
Log2(fold change) hypoxanthine ([2]; metabolite hypoxanthine): 0.0000
Log2(fold change) indole ([2]; metabolite indole): 0.0000
Log2(fold change) inosine ([2]; metabolite inosine): -0.4356
Log2(fold change) isoleucine ([2]; metabolite isoleucine): -0.0171
Log2(fold change) lactate ([2]; metabolite lactate): -0.5208
Log2(fold change) leucine ([2]; metabolite leucine): -0.1746
Log2(fold change) lysine ([2]; metabolite lysine): -0.1798
Log2(fold change) malate ([2]; metabolite malate): -0.0910
Log2(fold change) maleic acid ([2]; metabolite maleic acid): -0.0602
Log2(fold change) methionine ([2]; metabolite methionine): -0.0405
Log2(fold change) myo-inositol ([2]; metabolite myo-inositol): -0.7507
Log2(fold change) nicotinamide mononucleotide ([2]; metabolite nicotinamide mononucleotide): -0.0942
Log2(fold change) nicotinate ([2]; metabolite nicotinate): -0.4821
Log2(fold change) ornithine ([2]; metabolite ornithine): 0.0000
Log2(fold change) orotate ([2]; metabolite orotate): -0.4063
Log2(fold change) orotidine-5'-phosphate ([2]; metabolite orotidine-5'-phosphate): -0.7157
Log2(fold change) oxaloacetate ([2]; metabolite oxaloacetate): 0.0000
Log2(fold change) p-aminobenzoate ([2]; metabolite p-aminobenzoate): 0.0000
Log2(fold change) p-hydroxybenzoate ([2]; metabolite p-hydroxybenzoate): 0.0000
Log2(fold change) pantothenate ([2]; metabolite pantothenate): 0.0000
Log2(fold change) phenylalanine ([2]; metabolite phenylalanine): -0.1685
Log2(fold change) phenylpyruvate ([2]; metabolite phenylpyruvate): 0.0000
Log2(fold change) phosphoenolpyruvate ([2]; metabolite phosphoenolpyruvate): 0.1912
Log2(fold change) prephenate ([2]; metabolite prephenate): 0.0000
Log2(fold change) proline ([2]; metabolite proline): -0.3045
Log2(fold change) pyridoxine ([2]; metabolite pyridoxine): -0.5037
Log2(fold change) pyruvate ([2]; metabolite pyruvate): -0.3898
Log2(fold change) riboflavin ([2]; metabolite riboflavin): -0.1185
Log2(fold change) ribose ([2]; metabolite ribose): -0.0288
Log2(fold change) ribose-phosphate ([2]; metabolite ribose-phosphate): -0.1512
Log2(fold change) ribulose-5-phosphate ([2]; metabolite ribulose-5-phosphate): 0.0069
Log2(fold change) serine ([2]; metabolite serine): -0.0430
Log2(fold change) sn-glycerol-3-phosphate ([2]; metabolite sn-glycerol-3-phosphate): 0.2262
Log2(fold change) succinate/Methylmalonic acid ([2]; metabolite succinate/Methylmalonic acid): 0.1026
Log2(fold change) succinyl-CoA/methylmalonyl-CoA ([2]; metabolite succinyl-CoA/methylmalonyl-CoA): 0.0000
Log2(fold change) taurine ([2]; metabolite taurine): -0.0060
Log2(fold change) thiamine ([2]; metabolite thiamine): -0.0860
Log2(fold change) threonine/homoserine ([2]; metabolite threonine/homoserine): -0.1129
Log2(fold change) thymidine ([2]; metabolite thymidine): 0.0000
Log2(fold changes) thymine ([2]; metabolite thymine, log2 fold change): 0.0000
Log2(fold changes) trehalose-6-Phosphate ([2]; metabolite trehalose-6-Phosphate, log2 fold change): 0.0000
Log2(fold changes) tryptophan ([2]; metabolite tryptophan, log2 fold change): 0.0186
Log2(fold changes) tyrosine ([2]; metabolite tyrosine, log2 fold change): 0.0223
Log2(fold changes) uridine ([2]; metabolite uridine, log2 fold change): 0.0000
IC50 [3]: 0.0098 µM
